How the values were obtained:
[1] = tested on: naive CD4+ T cells from BALB/c mouse spleen; assay: Regulatory T-cell-inducing effect of 14-DHE on CD4+ naive T cells (Example 13); assay type: cell-based
Protocol: Naive CD4^+ T cells were isolated from BALB/c mouse spleen-derived cells using the CD4^+CD62L^+ T cell isolation kit II (mouse) (Miltenyi Biotec). CD4^+ T cells were seeded at a density of 5×10^5 cells/mL to 48-well plates (2.5×10^5 cells per well), and then 1 μg/mL anti-CD3 antibody and 0.2 μg/mL anti-CD28 antibody were added. At this time, 2 types of media (i.e., media with and without TGF-β) were used. 14-DHE was added at a concentration of 0, 50, 100, 500, and 1000 nM. Five days later, cells were recovered. The proportion of CD25^+FoxP3^+ cells in CD4^+ T cells was determined using a flow cytometer. Prior to flow cytometry, cell surface staining was performed using CD4-APC, CD25-FITC and CD3e-PerCP, cell membrane permeabilization treatment was performed using the FoxP3 staining buffer set (eBioscience), and then FoxP3-PE staining was performed.

[2] = tested on: CD4+ T cells in regional lymph node cells and spleen cells of EAE mice; assay: EAE model, day 11 autopsy: intracellular cytokine positive rate in CD4+ T cells; assay type: in vivo, mouse; settings: re-stimulation with 2 μM MOG
Protocol: On day 0, the 35-55 peptide (MOG35-55, Operon), a glycoprotein of myelin oligodendroglial cells, as an antigen was mixed with complete Freund's adjuvant (CFA, Difco) and then the mixture was subcutaneously administered at a dose of 200 μg/animal. Subsequently, pertussis toxin (Wako Pure Chemical Industries, Japan) was intraperitoneally administered at a dose of 200 ng/animal on day 1 and day 3, thereby inducing the onset of multiple sclerosis. During days 7 to 18, 14-DHE was intraperitoneally administered at a dose of 10 μg/animal once a day. To the vehicle group, the following solvent for 14-DHE was administered: 10% ethanol (Wako Pure Chemical Industries, Japan)/10% Cremophor (Wako Pure Chemical Industries, Japan)/80% PBS (Takara, Japan).
Mice were autopsied on day 11 (when inflammation was thought to take place in vivo) to obtain biochemical data.
(2) Spleen cells and regional lymph node (inguinal or axillary) cells were prepared and then cultured for 3 days with re-stimulation with 2 μM MOG. Golgi plug (1 μL/mL) (Becton, Dickinson and Company) was added and then further incubation was performed for 4.5 hours. Cells were recovered and then subjected to cell surface staining with CD4-PerCP and CD3-APC-Cy7. Next, cell membrane permeabilization treatment was performed using the Cytofix/CytoPerm kit (Becton, Dickinson and Company), intracellular cytokine staining was performed using antibodies to TNF-α-FITC, IL-17-PE, IL-10-APC, and IFN-γ-PE-Cy7, and then the positive rate of intracellular cytokines in CD4^+ T cells was measured using FACS.

[3] = tested on: DCs induced from C57BL/6 mouse bone marrow cells; assay: Timing and duration of the DC-activation-suppressing effect of 14-DHE (Example 14); assay type: cell-based
Protocol: In a manner similar to those of the Examples above, C57BL/6 mouse bone marrow cells were prepared and then DCs were induced using Flt-3. The concentration of the added 14-DHE was 3 μM in all cases. The drug residence time in the culture system was controlled by medium exchange. Inflammation was induced using 5 ng/mL LPS, and then the expression level of CD86 was measured using a flow cytometer, so that the characteristics of regulatory DCs were determined. At this time, the cells that had been treated with LPS and without 14-DHE were used as control cells. The median fluorescence intensity (Median Fluorescence Intensity: MFI) of CD86 in the cells treated with 14-DHE was divided by MFI of untreated cells. The determined values indicate: 1 or more, no effect (score: −); 0.7-0.99, weak effect (score: +); 0.4-0.69, moderate effect (score: ++); and 0.4 or less, strong effect (score: +++).

[4] = tested on: C57BL/6 mDCs co-cultured with BALB/c CD4+CD62L+ T cells; assay: Cytokine profile of CD4+ T cells induced by DCs treated with 14-DHE, MLR (Example 11); assay type: cell-based, mouse; settings: 14-DHE 3 μM, day 4 supernatant, vs control mDC
Protocol: In a manner similar to that described in the above Examples, bone marrow cells were prepared from C57BL/6 mouse thigh bone, and then dendritic cells were induced using Flt-3L. 14-DHE was added at 3 μM simultaneously with the initiation of culture. Seven days later, Salmonella typhosa-derived LPS (Sigma Aldrich) was added at 5 ng/mL and then 24 hours later, cells were recovered. Subsequently, CD11c^+CD11b^+ was set as a gate for mDCs and then recovered cells were sorted. Next, from the BALB/c mouse spleen, CD4^+CD62L^+ T cells were isolated using the CD4^+CD62L^+ T cell isolation kit II (mouse) (Miltenyi Biotec), followed by mixed culture at a ratio of mDC:CD4^+T cell of 1:5. As a control, mDC prepared in the absence of 14-DHE was used. A culture supernatant on day 4 of culture was recovered, and then TNF-α, IFN-γ, IL-6, IL-10, and IL-17 were measured by ELISA. As ELISA kits, Mouse TNF-α Ready-SET-Go! (eBioscience), a BD OptEIA Mouse IFN-γ ELISA set (BD Life Science), Mouse IL-6 Ready-SET-Go! (eBioscience), a BD OptEIA Mouse IL-10 ELISA set (BD Life Science), and Mouse IL-17 DuoSet ELISA (R&D Systems) were separately used.

Compound: CC(C)[C@@H](C)/C=C/[C@@H](C)[C@H]1CC=C2C3=CC=C4C[C@@H](O)CC[C@]4(C)[C@H]3CC[C@@]21C [Sample 14-DHE, ergosta-5,7,14,22-tetraen-3β-ol]
- effective concentration on T cells lower compared with that of DCs ([1]; T cells vs DCs (1 μM)): ≥ 20 times
- proportion of CD25+FoxP3+ cells in CD4+ T cells ([1]; absence of TGF-β, 14-DHE 50-1000 nM, 5 days): no change
- increase in proportion of CD25+FoxP3+ cells compared with no 14-DHE ([1]; presence of TGF-β, 14-DHE 50 nM (lowest concentration), 5 days): ≥ 5 times
- IFN-γ production by CD4+ T cells, lymph node cells [2]: significantly decrease
- IFN-γ production by CD4+ T cells, spleen cells [2]: significantly decrease
- IL-17 production by CD4+ T cells, spleen cells [2]: significantly decrease
- TNF-α production by CD4+ T cells, lymph node cells [2]: significantly decrease
- TNF-α production by CD4+ T cells, spleen cells [2]: significantly decrease
- duration of the effect ([3]; 14-DHE 3 μM): 72 h
- DC activation (CD86)-suppressing effect ([3]; 14-DHE 3 μM added for 5 or 6 days from initiation of differentiation): the degree of the effect significantly decreased
- DC activation (CD86)-suppressing effect ([3]; 14-DHE 3 μM added for 7 days starting from initiation of DC differentiation, LPS 5 ng/mL): strong effect
- DC activation (CD86)-suppressing effect ([3]; 14-DHE 3 μM addition begun on day 7 when DC differentiation was completed): strong effect
- DC activation (CD86)-suppressing effect ([3]; 14-DHE absent at the time of adding LPS): decrease in the effect was observed
- time within which the effect significantly decreased ([3]; addition begun on day 0 or on day 7): ≤ 72 h
- time required for 14-DHE to exhibit its effect ([3]; addition from initiation of DC differentiation): ≥ 7 days
- IFN-γ production (ELISA) [4]: significant decreases
- IL-6 production (ELISA) [4]: significant decreases
- IL-10 production (ELISA) [4]: no statistically significant difference was observed
- IL-17 production (ELISA) [4]: significant decreases
- TNF-α production (ELISA) [4]: significant decreases
